From patent US11655216B2 (priority 2016, dated 2023) come the findings set out here.

For test [1], the target named is T1, glutathione-S-transferase (GST) tagged LXRbeta LBD (ligand binding domain) (Homo sapiens, UniProt P55055).
T1 construct: purchased Invitrogen pv4658
T1 sequence (P55055 222-460 limits assumed): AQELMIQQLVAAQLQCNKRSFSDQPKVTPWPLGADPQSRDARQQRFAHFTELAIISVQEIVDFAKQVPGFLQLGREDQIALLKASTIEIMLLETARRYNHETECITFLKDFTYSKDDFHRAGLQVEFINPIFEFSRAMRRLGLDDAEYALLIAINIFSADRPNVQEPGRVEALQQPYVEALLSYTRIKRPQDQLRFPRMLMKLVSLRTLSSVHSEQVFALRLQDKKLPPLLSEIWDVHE
The experiment in a line: LanthaScreen TR-FRET Liver X Receptor Coactivator Assay, LXR beta. It is filed as biochemical. The settings on record: for EC50: LXR beta IP, potency (Inflection Point), compound-induced co-activator recruitment, TR-FRET; for Emax: read-out: LXR beta actiivty at max dose, efficacy (% Emax) in relation to reference dual agonist T0901317. The protocol:
(§1) While running the LanthaScreen™ TR-FRET Liver X Receptor Coactivator Assay, LXR alpha-LBD or LXR beta-LBD was added to ligand test compounds followed by addition of a mixture of a fluorescein-labelled coactivator peptide and terbium-conjugated anti-GST antibody. After an incubation period at room temperature, TR-FRET (time-resolved fluorescence resonance energy transfer) was measured using a filter-based instrument capable of TR-FRET, e.g. PerkinElmer Envision.

Test [2] deals with T2, glutathione-S-transferase (GST) tagged LXRalpha LBD (ligand binding domain) (Homo sapiens, UniProt Q13133).
T2 construct: purchased Invitrogen pv4655
T2 sequence (Q13133 209-447 limits assumed): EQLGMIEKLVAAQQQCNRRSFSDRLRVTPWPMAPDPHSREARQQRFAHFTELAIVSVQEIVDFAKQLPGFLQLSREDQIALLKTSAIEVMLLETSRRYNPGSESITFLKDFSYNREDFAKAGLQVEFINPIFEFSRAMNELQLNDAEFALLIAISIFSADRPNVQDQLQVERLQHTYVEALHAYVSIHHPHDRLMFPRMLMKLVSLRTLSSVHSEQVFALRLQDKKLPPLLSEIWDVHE
The experiment in a line: biochemical. The protocol: as §1

Setting [3] is: LXR alpha IP, potency (Inflection Point), compound-induced co-activator recruitment, TR-FRET.
Where [4] appears, read: read-out: LXR alpha actiivty at max dose, efficacy (% Emax) in relation to reference dual agonist T0901317.
[5] abbreviates: potency (Inflection Point), compound-induced co-activator recruitment, TR-FRET, read-out: LXR alpha IP.
Where [6] appears, read: potency (Inflection Point), compound-induced co-activator recruitment, TR-FRET.
The mark [7] stands for this setting: efficacy (% Emax) in relation to reference dual agonist T0901317, read-out: LXR alpha actiivty at max dose.

The structures appear in SMILES notation. Read-outs that look alike come from different tables or passages of the source.

In the case of `CC(COc1ccc(C(=O)N(C)C)c(Cl)c1)CC(C)C1CCN(C(=O)C(O)(c2ccccc2)C(F)(F)F)CC1` (single isomer, unassigned) [Example 31-1, 2-chloro-N,N-dimethyl-4-(2-methyl-4-(1-((R or S)-3,3,3-trifluoro-2-hydroxy-2-phenylpropanoyl)piperidin-4-yl)pentyloxy)benzamide], the EC50 was 0.025 µM in test [1] and 0.284 µM in test [2] (setting [3]). For the same compound, the results for the Emax in test [1] and in test [2] (setting [4]) were 56% and 27%, respectively.
On the same counts, the results for `CN(C)C(=O)c1ccc(OCCCCC2CCN(C(=O)C(O)(c3ccccc3)C(F)(F)F)CC2)nc1C#N` (stereo not shown) [Example 4-1, 2-cyano-N,N-dimethyl-6-(4-(1-(3,3,3-trifluoro-2-hydroxy-2-phenylpropanoyl)piperidin-4-yl)butoxy)nicotinamide] are 0.03 µM, 0.419 µM, 77% and 37%.
On the same counts, the results for `CN(C(=O)c1ccc(OCCCCC2CCN(C(=O)[C@](O)(c3ccccc3)C(F)(F)F)CC2)cc1Cl)[C@H]1CCOC1` (single isomer, unassigned) [Example 8-16, 2-chloro-N-methyl-N-((S or R)-tetrahydro-furan-3-yl)-4-(4-(1-((R or S)-3,3,3-trifluoro-2-hydroxy-2-phenylpropanoyl)piperidin-4-yl)butoxy) benzamide] are 0.01 µM, 0.116 µM, 71% and 32%.
As to `CN(C)C(=O)c1ccc(OC[C@@H](F)CCC2CCN(C(=O)[C@](O)(c3ccccc3)C(F)(F)F)CC2)cc1Cl` (single isomer, unassigned) [Example 20-2, 2-chloro-4-((S or R)-2-fluoro-4-(1-((R or S)-3,3,3-trifluoro-2-hydroxy-2-phenylpropanoyl)piperidin-4-yl)butoxy)-N,N-dimethylbenzamide], the EC50 in test [1] came to 0.071 µM; in test [2] (setting [5]) it was 1.49 µM. Moreover, the Emax in test [1] was found to be 73%; in test [2] (setting [4]) it was 25%.
On to `CN(C)C(=O)c1ccc(O[C@H]2C[C@@H](CC3CCN(C(=O)[C@](O)(c4cc(F)cc(Cl)c4)C(F)(F)F)CC3)C2)cc1Cl` (single isomer, unassigned) [Example 37-10, 2-chloro-4-((1R,3s)-3-((1-((R or S)-2-(3-chloro-5-fluorophenyl)-3,3,3-trifluoro-2-hydroxypropanoyl)piperidin-4-yl)methyl)cyclobutoxy)-N,N-dimethylbenzamide], for which the EC50 was 0.005 µM in test [1] and 0.318 µM in test [2] (setting [3]). Besides, the Emax in test [1] amounted to 140%; in test [2] (setting [4]), 46%.
On to `COc1cccc([C@@](O)(C(=O)N2CCC([C@H]3C[C@H]3CCOc3ccc(C(=O)N(C)C)c(Cl)c3)CC2)C(F)(F)F)c1` (single isomer, unassigned) [Example 10-1, 2-chloro-N,N-dimethyl-4-(2-((1S,2R or 1R, 2S)-2-(1-((R or S)-3,3,3-trifluoro-2-hydroxy-2-(3-methoxyphenyl)propanoyl)piperidin-4-yl)cyclopropyl)ethoxy)benzamide], for which the EC50 in test [1] was found to be 0.005 µM; in test [2] (LXR alpha IP), 0.117 µM. In addition, the results for the Emax in test [1] and in test [2] (read-out: LXR alpha actiivty at max dose) were 66% and 14%, respectively.
As to `CN(C)C(=O)c1ccc(OCCCCC2CCN(C(=O)C(C)(C)c3ccccc3)CC2)cc1Cl` [Example 3-6, 2-chloro-N,N-dimethyl-4-(4-(1-(2-methyl-2-phenylpropanoyl)piperidin-4-yl)butoxy)benzamide], in test [1], the EC50 is 0.077 µM. Also, the Emax in test [1] is 64%; in test [2] (setting [4]), 8%. In addition, in test [2] (setting [6]), the “LXR alpha IP” value was “No IP”.
In the case of `O=C(N[C@H]1CCOC1)c1ccc(OCCCCC2CCN(C(=O)[C@](O)(c3ccccc3)C(F)(F)F)CC2)cc1Cl` (single isomer, unassigned) [Example 8-6, 2-chloro-N-((S or R)-tetrahydrofuran-3-yl)-4-(4-(1-((R or S)-3,3,3-trifluoro-2-hydroxy-2-phenylpropanoyl)piperidin-4-yl)butoxy) benzamide], the EC50 in test [1] was determined as 0.086 µM; in test [2] (setting [3]), 1.05 µM. For the same compound, the results for the Emax in test [1] and in test [2] (setting [4]) were 75% and 35%, respectively.
As to `COc1cccc(C(O)(C(=O)N2CCC(C3CC3(C)COc3ccc(C(=O)N(C)C)c(Cl)c3)CC2)C(F)(F)F)c1` (single isomer, unassigned) [Example 16-1, 2-chloro-N,N-dimethyl-4-((1-methyl-2-(1-((R or S)-3,3,3-trifluoro-2-hydroxy-2-(3-methoxyphenyl)propanoyl)piperidin-4-yl)cyclopropyl)methoxy)benzamide], the EC50 in test [1] is 0.066 µM; in test [2] (setting [3]), 0.955 µM. The Emax in test [1] amounted to 84%; in test [2] (setting [4]), 18%.
The like results for `CN(C)C(=O)c1ccc(OCC[C@@H]2CC23CCN(C(=O)C(C)(c2ccccc2)C2CCC2)CC3)cc1Cl` (single isomer, unassigned) [Example 12-14, 2-chloro-4-(2-((S or R)-6-((S or R)-2-cyclobutyl-2-phenylpropanoyl)-6-azaspiro[2.5]octan-1-yl)ethoxy)-N,N-dimethylbenzamide] were, in that order, 0.022 µM, 0.343 µM, 74% and 20%.
Turning to `CCOc1cccc([C@@](O)(C(=O)N2CCC(C[C@H]3C[C@@H](Oc4ccc(C(=O)N(C)C)c(Cl)c4)C3)CC2)C(F)(F)F)c1` (single isomer, unassigned) [Example 37-3, 2-chloro-4-((1R,3s)-3-((1-((R or S)-2-(3-ethoxyphenyl)-3,3,3-trifluoro-2-hydroxypropanoyl)piperidin-4-yl)methyl)cyclobutoxy)-N,N-dimethylbenzamide], in test [1], the EC50 amounted to 0.017 µM and the Emax amounted to 124%. Besides, the “LXR alpha IP” value in test [2] (setting [6]) is given as “No IP”. Further, the Emax in test [2] (setting [4]) came out at 9%.
Consider `CN(C)CCCNC(=O)c1ccc(OCCCCC2CCN(C(=O)[C@](O)(c3ccccc3)C(F)(F)F)CC2)cc1Cl` (single isomer, unassigned) [Example 8-19, (R or S)-2-chloro-N-(3-(dimethylamino)propyl)-4-(4-(1-(3,3,3-trifluoro-2-hydroxy-2-phenylpropanoyl)piperidin-4-yl)butoxy) benzamide], for which the EC50 in test [1] amounted to 0.033 µM; in test [2] (setting [3]) it was 1.24 µM. The figures for the Emax in test [1] and in test [2] (setting [4]) were 53% and 36%, respectively.
Turning to `CN(C)C(=O)c1ccc(OCCCC2CC3(CCN(C(=O)C(O)(c4ccccc4)C(F)(F)F)CC3)C2)cc1Cl` (single isomer, unassigned) [Example 35-1, 2-chloro-N,N-dimethyl-4-(3-(7-((R or S)-3,3,3-trifluoro-2-hydroxy-2-phenylpropanoyl)-7-azaspiro[3.5]nonan-2-yl)propoxy)benzamide], the EC50 in test [1] turned out to be 0.069 µM; in test [2] (setting [5]), 0.546 µM. Besides, the Emax is 61% in test [1] and 27% in test [2] (setting [7]).
With `CN(C)C(=O)c1ccc(OCCCCC2CCN(C(=O)C(O)(c3cccnc3)C(F)(F)F)CC2)nc1Cl` (stereo not shown) [Example 6-2, 2-chloro-N,N-dimethyl-6-(4-(1-(3,3,3-trifluoro-2-hydroxy-2-(pyridin-3-yl)propanoyl)piperidin-4-yl)butoxy)nicotinamide], the EC50 stood at 0.008 µM in test [1] and 1.23 µM in test [2] (setting [3]). Further, the Emax amounted to 90% in test [1] and 74% in test [2] (setting [4]).
Turning to `CN(C)C(=O)c1ccc(OCC(F)CCC2CCN(C(=O)C(O)(c3ccccc3)C(F)(F)F)CC2)cc1Cl` (single isomer, unassigned) [Example 20-1, 2-chloro-4-(2-fluoro-4-(1-((R or S)-3,3,3-trifluoro-2-hydroxy-2-phenylpropanoyl)piperidin-4-yl)butoxy)-N,N-dimethylbenzamide], the EC50 stood at 0.08 µM in test [1] and 1.43 µM in test [2] (setting [5]). Besides, the Emax in test [1] is 72%; in test [2] (setting [7]), 26%.
As for `COc1cccc(C(O)(C(=O)N2CCC(CCCCOc3ccc(C(=O)N(C)C)c(OC)c3)CC2)C(F)(F)F)c1` (single isomer, unassigned) [Example 5-1, (R or S)-2-methoxy-N,N-dimethyl-4-(4-(1-(3,3,3-trifluoro-2-hydroxy-2-(3-methoxyphenyl)propanoyl)piperidin-4-yl)butoxy)benzamide], in test [1], the EC50 came out at 0.036 µM and the Emax turned out to be 66%. For the same compound, the Emax in test [2] (setting [7]) stood at 7%. Also, the “LXR alpha IP” value in test [2] (setting [6]) is “No IP”.
